Reference: PubChem BioAssay (NCI)
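Interpolation was linear, between the two tested concentrations surrounding the appropriate level; five concentrations were tested over 48 hours in 96-well plates. TGI marks complete inhibition of growth.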

Legend:
Test in all cases: NCI-60 cell line screen, 48 h
[1] = tested on: A498 renal
[2] = tested on: A549 NSCLC
[3] = tested on: ACHN renal
[4] = tested on: CAKI-1 renal
[5] = tested on: CCRF-CEM leukemia
[6] = tested on: COLO 205 colon
[7] = tested on: DLD-1 colon
[8] = tested on: DMS 114 small cell lung
[9] = tested on: DMS 273 small cell lung
[10] = tested on: EKVX NSCLC
[11] = tested on: HCC-2998 colon
[12] = tested on: HCT-116 colon
[13] = tested on: HCT-15 colon
[14] = tested on: HL-60(TB) leukemia
[15] = tested on: HOP-18 NSCLC
[16] = tested on: HOP-62 NSCLC
[17] = tested on: HOP-92 NSCLC
[18] = tested on: HT29 colon
[19] = tested on: IGROV1 ovarian
[20] = tested on: K-562 leukemia
[21] = tested on: KM12 colon
[22] = tested on: KM20L2 colon
[23] = tested on: LOX IMVI melanoma
[24] = tested on: LXFL 529 NSCLC
[25] = tested on: M14 melanoma
[26] = tested on: M19-MEL melanoma
[27] = tested on: MALME-3M melanoma
[28] = tested on: MOLT-4 leukemia
[29] = tested on: NCI-H226 lung
[30] = tested on: NCI-H23 lung
[31] = tested on: NCI-H460 lung
[32] = tested on: NCI-H522 lung
[33] = tested on: OVCAR-3 ovarian
[34] = tested on: OVCAR-4 ovarian
[35] = tested on: OVCAR-5 ovarian
[36] = tested on: OVCAR-8 ovarian
[37] = tested on: RPMI-8226 leukemia
[38] = tested on: RXF 393 renal
[39] = tested on: RXF-631 renal
[40] = tested on: SF-268 CNS
[41] = tested on: SF-295 CNS
[42] = tested on: SF-539 CNS
[43] = tested on: SK-MEL-2 melanoma
[44] = tested on: SK-MEL-28 melanoma
[45] = tested on: SK-MEL-5 melanoma
[46] = tested on: SK-OV-3 ovarian
[47] = tested on: SN12C renal
[48] = tested on: SNB-19 CNS
[49] = tested on: SNB-75 CNS
[50] = tested on: SNB-78 CNS
[51] = tested on: SR leukemia
[52] = tested on: SW-620 colon
[53] = tested on: TK-10 renal
[54] = tested on: U251 CNS
[55] = tested on: UACC-257 melanoma
[56] = tested on: UACC-62 melanoma
[57] = tested on: UO-31 renal
[58] = tested on: XF 498 CNS
[59] = tested on: 786-0 renal

## O=C(CC1Sc2ccccc2NC1=O)Nc1ccc(Cl)cc1 (configuration not stated)
[1]
  TGI: > 100 µM
[2]
  TGI: > 100 µM
[3]
  TGI: > 100 µM
[4]
  TGI: > 100 µM
[5]
  TGI: > 100 µM
[6]
  TGI: > 100 µM
[7]
  TGI: > 100 µM
[8]
  TGI: > 100 µM
[9]
  TGI: > 100 µM
[10]
  TGI: > 100 µM
[11]
  TGI: > 100 µM
[12]
  TGI: > 100 µM
[13]
  TGI: > 100 µM
[14]
  TGI: > 100 µM
[15]
  TGI: > 100 µM
[16]
  TGI: > 100 µM
[17]
  TGI: 67.2 µM
[18]
  TGI: > 100 µM
[19]
  TGI: > 100 µM
[20]
  TGI: > 100 µM
[21]
  TGI: > 100 µM
[22]
  TGI: > 100 µM
[23]
  TGI: > 100 µM
[24]
  TGI: > 100 µM
[25]
  TGI: > 100 µM
[26]
  TGI: > 100 µM
[27]
  TGI: > 100 µM
[28]
  TGI: > 100 µM
[29]
  TGI: > 100 µM
[30]
  TGI: > 100 µM
[31]
  TGI: > 100 µM
[32]
  TGI: > 100 µM
[33]
  TGI: > 100 µM
[34]
  TGI: 47.3 µM
[35]
  TGI: > 100 µM
[36]
  TGI: > 100 µM
[37]
  TGI: > 100 µM
[38]
  TGI: 67.2 µM
[39]
  TGI: > 100 µM
[40]
  TGI: > 100 µM
[41]
  TGI: > 100 µM
[42]
  TGI: > 100 µM
[43]
  TGI: > 100 µM
[44]
  TGI: > 100 µM
[45]
  TGI: > 100 µM
[46]
  TGI: > 100 µM
[47]
  TGI: > 100 µM
[48]
  TGI: > 100 µM
[49]
  TGI: > 100 µM
[50]
  TGI: > 100 µM
[51]
  TGI: > 100 µM
[52]
  TGI: > 100 µM
[53]
  TGI: > 100 µM
[54]
  TGI: > 100 µM
[55]
  TGI: > 100 µM
[56]
  TGI: > 100 µM
[57]
  TGI: > 100 µM
[58]
  TGI: > 100 µM

## CN1CCc2c1nc(-c1ccc([N+](=O)[O-])cc1)c1c2N(C)CC1
[59]
  TGI: > 100 µM
[1]
  TGI: > 100 µM
[2]
  TGI: > 100 µM
[3]
  TGI: > 100 µM
[4]
  TGI: > 100 µM
[5]
  TGI: > 100 µM
[6]
  TGI: > 100 µM
[7]
  TGI: > 100 µM
[8]
  TGI: > 100 µM
[10]
  TGI: > 100 µM
[11]
  TGI: > 100 µM
[12]
  TGI: > 100 µM
[13]
  TGI: > 100 µM
[14]
  TGI: > 100 µM
[15]
  TGI: > 100 µM
[16]
  TGI: > 100 µM
[17]
  TGI: > 100 µM
[18]
  TGI: > 100 µM
[19]
  TGI: > 100 µM
[20]
  TGI: > 100 µM
[21]
  TGI: > 100 µM
[22]
  TGI: > 100 µM
[23]
  TGI: > 100 µM
[24]
  TGI: > 100 µM
[25]
  TGI: > 100 µM
[26]
  TGI: > 100 µM
[27]
  TGI: > 100 µM
[28]
  TGI: > 100 µM
[30]
  TGI: > 100 µM
[31]
  TGI: > 100 µM
[33]
  TGI: > 100 µM
[34]
  TGI: > 100 µM
[35]
  TGI: > 100 µM
[36]
  TGI: > 100 µM
[37]
  TGI: > 100 µM
[38]
  TGI: > 100 µM
[39]
  TGI: > 100 µM
[40]
  TGI: > 100 µM
[41]
  TGI: > 100 µM
[42]
  TGI: > 100 µM
[43]
  TGI: > 100 µM
[45]
  TGI: > 100 µM
[46]
  TGI: > 100 µM
[47]
  TGI: > 100 µM
[48]
  TGI: > 100 µM
[49]
  TGI: > 100 µM
[50]
  TGI: > 100 µM
[52]
  TGI: > 100 µM
[53]
  TGI: > 100 µM
[54]
  TGI: > 100 µM
[55]
  TGI: > 100 µM
[56]
  TGI: > 100 µM
[57]
  TGI: > 100 µM
[58]
  TGI: > 100 µM
